Laboratory results: patent US20170050966A1, “INHIBITING THE TRANSIENT RECEPTOR POTENTIAL A1 ION CHANNEL” (HYDRA BIOSCIENCES, INC., priority 2014, published 2017)
In brackets after ≈: the same amount, converted by molar mass.

Tests used:
[1] = tested on: T1, human CYP450 enzymes (seven isozymes tested); experiment: CYP450 inhibition, seven isozymes overall; format: biochemical; conditions: human, read-out: calculated IC50 values
T1 construct: other: seven isozymes tested

human CYP450 enzymes = experiment: CYP450 inhibition, seven isozymes overall; format: biochemical; conditions: 10 μM, seven isozymes tested
sheepTRPA1 = sheepTRPA1 (Ovis aries, UniProt A0ACI6QTQ3); experiment: TRPA1 IC50, whole-cell patch clamp; format: cell-based, Sheep; conditions: sheepTRPA1, 20 μM AITC; read-out: IC50 Inward current
[2] = Oral PK and bioavailability of micronized Compound 2 suspension; format: in vivo; conditions: fasted cynomolgus monkeys
Method: Additional studies were conducted with micronized Compound 2 in rat, dogs (beagles), and cynomolgus monkeys. Animals received a 10 mg/kg dose oral dose of compound formulated as a suspension in 0.5% methyl cellulose in water for injection at a target concentration of 1 mg/mL, and administered a dose volume of 10 mL/kg by oral gavage in rats or fasted dogs and via oral delivery in fasted cynomolgus monkeys. The % F for the rats in these studies was 85%, 36% for the dogs, and 19% for the monkeys. FIG. 11 depicts the pharmacokinetic profile for these species.
Three studies were conducted in fasted cynomolgus monkeys to determine the PK profile and bioavailability of a suspension formulation of Compound 2. Three monkeys were administered a suspension containing 10 mg/kg micronized Compound 2 by oral gavage. Monkeys were bled before dosing and at 0.25, 0.50, 1, 2, 4, 6, 12, and 24 hours post-dosing. Compound 2 plasma levels were determined by LC/MS/MS. Additional studies were conducted to evaluate the PK profile at higher dose levels of Compound 2 administered to fasted monkeys as an oral suspension. Blood samples were collected prior to dosing and up to 24 hours post-dosing. An additional 48 hour blood sample was collected from monkeys dosed with 300 mg/kg Compound 2. Plasma levels of Compound 2 were determined by LC/MS/MS.

CYP1A2 = biological target: T2, CYP1A2 (Homo sapiens, UniProt P05177); experiment: CYP450 inhibition at 10 μM; format: biochemical; conditions: probe Phenacetin, 1A2, substrate Phenacetin
T2 sequence (P05177 1-516): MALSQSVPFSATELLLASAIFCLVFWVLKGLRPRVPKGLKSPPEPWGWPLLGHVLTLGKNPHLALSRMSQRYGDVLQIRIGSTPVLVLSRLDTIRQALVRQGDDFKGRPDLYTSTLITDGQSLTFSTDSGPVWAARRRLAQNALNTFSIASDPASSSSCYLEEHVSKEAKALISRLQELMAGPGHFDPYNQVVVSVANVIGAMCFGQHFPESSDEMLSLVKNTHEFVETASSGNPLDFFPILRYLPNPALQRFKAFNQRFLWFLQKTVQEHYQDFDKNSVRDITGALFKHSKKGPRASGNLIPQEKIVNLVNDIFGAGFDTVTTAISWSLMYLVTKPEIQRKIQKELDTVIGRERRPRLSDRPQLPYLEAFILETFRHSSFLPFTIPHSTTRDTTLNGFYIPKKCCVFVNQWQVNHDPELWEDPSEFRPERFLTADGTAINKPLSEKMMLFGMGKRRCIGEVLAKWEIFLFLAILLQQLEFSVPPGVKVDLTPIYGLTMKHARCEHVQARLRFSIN

CYP2C9 = CYP2C9 (Homo sapiens, UniProt P11712); experiment: in vitro; conditions: probe Diclofenac
mTRPA1 = biological target: T3, mTRPA1 (Mus musculus, UniProt Q8BLA8); experiment: TRPA1 IC50, whole-cell patch clamp; format: cell-based; conditions: mTRPA1, 10 μM AITC; read-out: IC50 Inward current
T3 construct: expressed in transfected cells

beagle dogs = experiment: Hepatotoxicity safety profile, serum biomarkers; format: in vivo; conditions: for ALP d-5 / ALT d-5 / AST d-5 / GGT d-5: day -5 before dosing; for ALP d5 / ALT d5 / AST d5 / GGT d5: day 5
Method: Compound 2 in vehicle (0.5% methylcellulose [400 cps] in deionized water) was administered orally once daily for five consecutive days by gavage once to 3 groups of non-naïve male and female beagle dogs. Each group received one dose level. […] […] The dose volume was 10 ml/kg for all groups. Hepatoxicity was measured via the serum biomarkers of alanine aminotransferease [ALT], aspartate aminotransferase [AST], alkaline phosphastase [ALP] and gamma-glutamyl transferase [GGT] which represent hepatotoxicity or bile duct injury.

[3] = Plasma protein binding, equilibrium dialysis; conditions: pooled K2EDTA plasma
Method: With this method, free compound is separated from protein-bound compound by dialysis across a semi-permeable membrane.
The protein binding was tested at a concentration of 1 μM. Pooled human, cynomolgus monkey, dog, and rat K2EDTA plasma was thawed and centrifuged at 2000×g for 10 minutes at 4° C. to remove particulates; any lipid on the top of the supernatant was also removed by aspiration. The plasma was warmed to 37° C. for 10 minutes before use. Test compounds were spiked into 2 ml plasma in a polypropylene plate to a final concentration of 1 μM. Triplicate 400 μl aliquots of spiked plasma were transferred into the Thermo RED dialysis units and dialyzed against 600 μl of PBS buffer. […] After 6 hours dialysis, triplicate 50 μl aliquots were removed from the RED plate, matrix-matched with either PBS buffer or blank plasma, as appropriate, and quenched with 4 volumes of ACN containing an internal standard. The extracted samples were then centrifuged at 2000×g for 5 minutes at 4° C. The supernatant (50 μl) was removed and diluted with 100 μl water prior to LC/MS/MS bioanalysis.

[4] = Solubility in fasted-state simulated intestinal fluid (FaSSIF); format: physicochemical; conditions: thermodynamic from solid, pH 6.5, 25° C., read-out: Solubility in the FaSSIF model
Method: Solubility was also determined in a fasted-state simulated intestinal fluid (FaSSIF) assay. Briefly, Compound 2 was added to the FaSSIF medium (bile salts, NaOH (0.420 g), NaH2PO4 (3.438 g), NaCl (6.186 g), pH to 6.5, at 25° C., and brought to a 1 L volume) agitated for 30 hours and sampled, centrifuged, and analyzed by UPLC. Solubility in the FaSSIF model was determined to be 1.19 mg/ml.

Chain of CYP2C9 (P11712 whole entry): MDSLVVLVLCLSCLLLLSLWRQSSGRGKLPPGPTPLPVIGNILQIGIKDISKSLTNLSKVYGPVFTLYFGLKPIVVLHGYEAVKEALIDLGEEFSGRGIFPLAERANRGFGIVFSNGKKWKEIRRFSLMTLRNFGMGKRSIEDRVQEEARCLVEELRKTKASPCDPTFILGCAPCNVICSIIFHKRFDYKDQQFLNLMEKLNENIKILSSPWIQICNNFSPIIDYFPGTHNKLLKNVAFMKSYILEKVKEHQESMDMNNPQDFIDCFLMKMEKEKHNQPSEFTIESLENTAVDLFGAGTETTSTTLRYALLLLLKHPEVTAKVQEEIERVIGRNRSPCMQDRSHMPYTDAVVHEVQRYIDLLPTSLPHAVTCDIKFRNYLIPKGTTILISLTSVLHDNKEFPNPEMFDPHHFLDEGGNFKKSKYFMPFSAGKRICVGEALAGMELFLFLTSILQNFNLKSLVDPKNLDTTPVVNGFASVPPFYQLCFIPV
Chain of sheepTRPA1 (A0ACI6QTQ3 entry or part of it): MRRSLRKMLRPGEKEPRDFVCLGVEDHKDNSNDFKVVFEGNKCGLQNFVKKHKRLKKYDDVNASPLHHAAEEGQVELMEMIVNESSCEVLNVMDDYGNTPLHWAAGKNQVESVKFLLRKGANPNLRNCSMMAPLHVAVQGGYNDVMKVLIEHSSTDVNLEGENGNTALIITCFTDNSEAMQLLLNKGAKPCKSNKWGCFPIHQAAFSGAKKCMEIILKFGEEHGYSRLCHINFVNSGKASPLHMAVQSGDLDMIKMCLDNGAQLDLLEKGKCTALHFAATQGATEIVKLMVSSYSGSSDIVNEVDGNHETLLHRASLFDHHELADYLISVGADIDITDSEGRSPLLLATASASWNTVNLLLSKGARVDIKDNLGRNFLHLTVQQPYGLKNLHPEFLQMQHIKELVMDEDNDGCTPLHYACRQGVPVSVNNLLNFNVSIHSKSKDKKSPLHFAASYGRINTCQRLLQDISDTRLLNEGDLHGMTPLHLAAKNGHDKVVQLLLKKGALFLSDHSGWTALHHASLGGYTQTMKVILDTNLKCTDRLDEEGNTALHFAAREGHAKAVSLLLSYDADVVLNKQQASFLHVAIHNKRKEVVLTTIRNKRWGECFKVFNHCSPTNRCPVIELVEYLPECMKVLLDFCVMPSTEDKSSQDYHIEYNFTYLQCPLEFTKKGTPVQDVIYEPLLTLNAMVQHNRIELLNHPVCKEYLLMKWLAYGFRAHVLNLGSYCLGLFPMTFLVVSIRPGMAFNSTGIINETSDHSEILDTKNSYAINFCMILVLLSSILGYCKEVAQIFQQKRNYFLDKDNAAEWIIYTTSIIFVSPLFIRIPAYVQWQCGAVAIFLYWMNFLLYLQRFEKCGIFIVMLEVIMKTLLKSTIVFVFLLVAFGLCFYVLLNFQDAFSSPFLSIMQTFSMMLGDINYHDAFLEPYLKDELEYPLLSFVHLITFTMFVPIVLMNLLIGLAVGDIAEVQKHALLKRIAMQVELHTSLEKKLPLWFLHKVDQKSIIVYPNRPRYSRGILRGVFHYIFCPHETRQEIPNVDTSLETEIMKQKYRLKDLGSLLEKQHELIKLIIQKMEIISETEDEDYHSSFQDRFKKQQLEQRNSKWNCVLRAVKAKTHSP
T3 sequence (Q8BLA8 whole entry): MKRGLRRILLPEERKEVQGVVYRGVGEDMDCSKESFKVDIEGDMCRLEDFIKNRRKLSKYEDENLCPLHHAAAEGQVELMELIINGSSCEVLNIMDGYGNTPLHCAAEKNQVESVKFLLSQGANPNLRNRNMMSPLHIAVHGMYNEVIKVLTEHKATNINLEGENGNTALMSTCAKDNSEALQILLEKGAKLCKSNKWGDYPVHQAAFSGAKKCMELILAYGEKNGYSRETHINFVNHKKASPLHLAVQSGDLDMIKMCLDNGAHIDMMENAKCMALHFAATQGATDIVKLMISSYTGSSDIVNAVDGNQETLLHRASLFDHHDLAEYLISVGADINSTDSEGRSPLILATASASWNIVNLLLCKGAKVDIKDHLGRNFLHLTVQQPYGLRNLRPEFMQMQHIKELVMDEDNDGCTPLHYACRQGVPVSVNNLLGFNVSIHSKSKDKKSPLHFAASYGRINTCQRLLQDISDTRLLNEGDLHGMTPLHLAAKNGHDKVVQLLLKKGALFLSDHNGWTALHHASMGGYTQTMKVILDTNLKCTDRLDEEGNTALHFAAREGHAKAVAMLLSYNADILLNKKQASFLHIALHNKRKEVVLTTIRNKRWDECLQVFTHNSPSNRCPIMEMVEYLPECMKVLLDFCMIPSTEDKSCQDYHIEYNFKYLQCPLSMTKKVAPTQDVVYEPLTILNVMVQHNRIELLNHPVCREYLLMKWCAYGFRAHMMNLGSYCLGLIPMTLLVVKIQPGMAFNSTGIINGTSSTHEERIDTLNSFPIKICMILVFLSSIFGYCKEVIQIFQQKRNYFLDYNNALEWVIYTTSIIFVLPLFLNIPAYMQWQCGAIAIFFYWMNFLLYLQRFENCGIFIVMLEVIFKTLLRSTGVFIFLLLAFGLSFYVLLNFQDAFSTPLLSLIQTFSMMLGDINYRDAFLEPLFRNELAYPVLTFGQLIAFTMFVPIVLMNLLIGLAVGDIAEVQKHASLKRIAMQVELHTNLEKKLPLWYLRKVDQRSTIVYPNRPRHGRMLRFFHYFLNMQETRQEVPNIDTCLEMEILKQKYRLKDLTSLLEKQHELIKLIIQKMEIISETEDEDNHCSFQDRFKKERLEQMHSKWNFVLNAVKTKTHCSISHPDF

- IC50 [1]: > 10 µM
- maximum block of human CYP450 enzymes (human CYP450 enzymes): up to 37%
- IC50 (sheepTRPA1): 3.28 ± 0.64 µM
- bioavailability ([2]; cynomolgus monkey, plasma, 10 mg/kg oral, micronized suspension): 19%
- Exposures on an AUC and Cmax basis versus dose ([2]; oral suspension): increased with doses up to 1000 mg/kg
- inhibition at 10 µM (CYP1A2): 9%
- inhibition at 10 µM (CYP2C9): 22%
- IC50 (mTRPA1): 0.0266 ± 0.0033 µM
- fraction unbound at 6 h, 1 μM ([3]; beagle, dog): 0.055
- fraction unbound at 6 h, 1 μM ([3]; cynomolgus monkey): 0.02
- solubility at 30 h [4]: 1190 µg/mL (≈ 2190 µM)
SMILES: C[C@@H](C(=O)Nc1ccnc(-c2cnc(N3CCC[C@H]3C(F)(F)F)nc2)n1)n1cnc2c1c(=O)n(C)c(=O)n2C [Compound 2, (S)-2-(1,3-dimethyl-2,6-dioxo-2,3-dihydro-1H-purin-7(6H)-yl)-N-(2′-((S)-2-(trifluoromethyl)pyrrolidin-1-yl)-[2,5′-bipyrimidin]-4-yl)propanamide]
- ALP d-5 (beagle dogs; 30 mg/kg group): 93.0 U/L
- ALT d-5 (beagle dogs; 30 mg/kg group): 19.0 U/L
- AST d-5 (beagle dogs; 30 mg/kg group): 20.0 U/L
- GGT d-5 (beagle dogs; 30 mg/kg group): 0.0 U/L
- ALP d5 (beagle dogs; 30 mg/kg oral once daily): 143.0 U/L
- ALT d5 (beagle dogs; 30 mg/kg oral once daily): 20.0 U/L
- AST d5 (beagle dogs; 30 mg/kg oral once daily): 22.0 U/L
- GGT d5 (beagle dogs; 30 mg/kg oral once daily): 0.0 U/L
- ALP d-5 (beagle dogs; 100 mg/kg group): 120.0 U/L
- ALT d-5 (beagle dogs; 100 mg/kg group): 21.0 U/L
- AST d-5 (beagle dogs; 100 mg/kg group): 20.0 U/L
- GGT d-5 (beagle dogs; 100 mg/kg group): 0.0 U/L
- ALP d5 (beagle dogs; 100 mg/kg oral once daily): 141.0 U/L
- ALT d5 (beagle dogs; 100 mg/kg oral once daily): 19.0 U/L
- AST d5 (beagle dogs; 100 mg/kg oral once daily): 21.0 U/L
- GGT d5 (beagle dogs; 100 mg/kg oral once daily): 0.5 U/L
- ALP d-5 (beagle dogs; 300 mg/kg group): 118.0 U/L
- ALT d-5 (beagle dogs; 300 mg/kg group): 28.0 U/L
- AST d-5 (beagle dogs; 300 mg/kg group): 22.0 U/L
- GGT d-5 (beagle dogs; 300 mg/kg group): 0.0 U/L
- ALP d5 (beagle dogs; 300 mg/kg oral once daily): 101.0 U/L
- ALT d5 (beagle dogs; 300 mg/kg oral once daily): 21.0 U/L
- AST d5 (beagle dogs; 300 mg/kg oral once daily): 22.0 U/L
- GGT d5 (beagle dogs; 300 mg/kg oral once daily): 0.0 U/L
- serum biomarkers of hepatotoxicity (ALT, AST, ALP, GGT) (beagle dogs; beagle dogs, oral once daily for five days): did not elevate the serum biomarkers up to and including a dose of 300 mg/kg
